For seven compounds, IC50, Activity and inhibition results are on record in ChEMBL document CHEMBL1157943, “Oblongifolins A-D, polyprenylated benzoylphloroglucinol derivatives from Garcinia oblongifolia” (J Nat Prod, 2006).

The nature of test [1]: Inhibition of microtubule disassembly.
The nature of test [2]: Inhibition of tubulin assembly.
Test [3] in a line: Inhibition of microtubule disassembly at 10 mg/ml.
A short description of test [4]: Inhibition of tubulin assembly at 10 mg/ml.

Activity calls are given as the source filed them. The rule behind the calls is not given here.

In turn, `CC(=O)O[C@H]1C(=O)[C@@]2(C)[C@H]([C@H](OC(=O)c3ccccc3)[C@]3(O)C[C@H](OC(=O)[C@H](O)[C@@H](NC(=O)c4ccccc4)c4ccccc4)C(C)=C1C3(C)C)[C@]1(OC(C)=O)CO[C@@H]1C[C@@H]2O` [PACLITAXEL] showed an IC50 in test [1] of 0.5 µM. Further, the result in test [2] was inactive.

Turning to `C=C(C)[C@@H](CC=C(C)C)C[C@@]12C[C@@H](CC=C(C)C)C(C)(C)[C@@](CC=C(C)C)(C(=O)C(C(=O)c3ccc(O)c(O)c3)=C1O)C2=O` [GARCINOL], the inhibition in test [3] was 46%. Also, half-maximal inhibition in test [2] (IC50) was put at 97 µM.

Take `CC(C)=CCC/C(C)=C/C[C@H]1C[C@]2(C/C=C(\C)CCC=C(C)C)C(=O)[C@@](CC=C(C)C)(C(=O)C(C(=O)c3ccc(O)c(O)c3)=C2O)C1(C)C` [OBLONGIFOLIN D]: the result in test [1] was inactive. Further, it took 92 µM to reach half-maximal inhibition in test [2] (IC50).

Regarding `CC(C)=CCC/C(C)=C/C[C@H]1C[C@]2(CC=C(C)C)C(=O)[C@@](CC=C(C)C)(C(=O)C(C(=O)c3ccc(O)c(O)c3)=C2O)C1(C)C`, the inhibition in test [4] stood at 41%. The result in test [1] was inactive.

Regarding `CC(C)=CCC/C(C)=C/C[C@@H]1C[C@]2(CC=C(C)C)C(=O)[C@@](CC=C(C)C)(C(=O)C(C(=O)c3ccc(O)c(O)c3)=C2O)C1(C)C` [OBLONGIFOLIN B], the inhibition in test [3] was determined as 7%. The same compound gave an IC50 in test [2] of 69 µM.

Regarding `CC(C)=CCC/C(C)=C/C[C@@H]1C[C@@]2(C/C=C(\C)CCC=C(C)C)C(=O)[C@](CC=C(C)C)(C(=O)C(C(=O)c3ccc(O)c(O)c3)=C2O)C1(C)C` [GUTTIFERONE B], in test [1], the result was inactive. The compound further came in with an IC50 in test [2] of 53 µM.

As to `CC(C)=CCC/C(C)=C/C[C@@H]1C[C@]2(CC=C(C)C)C(=O)[C@@](CC=C(C)C)(C(=O)C(C(=O)c3ccc(O)c(O)c3)=C2O)[C@@]1(C)CCC=C(C)C` [OBLONGIFOLIN C], the outcome in test [1] was inactive. In addition, the IC50 in test [2] is 53 µM.
